{
  "source": "patent US20220331303A1",
  "about": "“USE OF AN OREXIN 2 RECEPTOR AGONIST FOR THE TREATMENT OF EXCESSIVE SLEEPINESS” (Takeda Pharmaceutical Company Limited, priority 2019, published 2022)",
  "assay_type_in_all_cases": "in vivo, human",
  "key": {"patients with NT2 [1]": {"system": "patients with NT2", "assay": "MWT in patients with NT2 (Cohorts C1, C2)", "method": "(§1) The purpose of the study was to evaluate the safety, tolerability, pharmacokinetics and pharmacodynamics of Compound A after multiple days of IV administration in patients with NT2. NT2 patients were evaluated in Cohort C1 and C2 (Table 30). Compound A or placebo were administered via IV infusion over 9 hours once daily for 7 days. A total of 14 patients with NT2 were treated with Compound A or placebo (5, 4, and 5 subjects in the placebo, Compound A 44 mg, and Compound A 112 mg groups, respectively). In this part, potential efficacy of Compound A was evaluated with MWT, ESS, KSS, night-time PSG (NPSG), and PGI-C as an exploratory PD assessment.\nAn overview of study schedule and PD testing in NT2 Patients is illustrated in FIG. 9. After screening, patients eligible for these parts had to discontinue any medication for narcolepsy including medications used for EDS or cataplexy. The medications had to be stopped for a minimum of 7 days or at least 5 half-lives of each medication, whichever was longer, before the first day of dosing (Day 1). In all cohorts of these parts, subjects underwent NPSG on Day −2 and baseline MWT sessions 4 times on Day −1 (at around 10:00, 12:00, 14:00, and 16:00). Study drug dosing via IV infusion was started at around 08:00 on Days 1-7. MWT was conducted on Day 1 at around 10:00, 12:00, 14:00, and 16:00. Subjects were allowed to take a nap on the days with no MWT assessment. At night of Day 6, the subjects underwent NPSG once again to evaluate the effect of multiple daytime dosing on night-time sleep structure. On Day 7, the subjects underwent MWT at the same hours as on Day −1. The subjects were discharged from the study site on Day 8.\nThe MWT is a validated objective measure that evaluates a person's ability to remain awake under soporific conditions for a defined period of time. As there is no biological measure of wakefulness, this was measured indirectly by the inability or delayed tendency to fall asleep. This tendency to fall asleep was measured via EEG-derived sleep latency in MWT.\nOn Day −1, Day 1 and Day 7, 40-minute session (1 session) of MWTs was performed 4 times (approximately at 10:00, 12:00, 14:00, and 16:00) per day. Sleep latency of each session was recorded. Subjects were required to stay awake during an interval between sessions."}, "patients with NT2 [2]": {"system": "patients with NT2", "assay": "Epworth Sleepiness Scale (ESS) in patients with NT2", "parameters": "scale not given here", "settings": "Day 7", "method": "as §1"}, "[3]": {"system": "subjects with obstructive sleep apnea", "assay": "Safety/tolerability of single dose in subjects with OSA", "settings": "single doses 44 mg and 112 mg, infusion over 9 hours, OSA patients", "description": "The purpose of the study was to evaluate the pharmacokinetics (PK), pharmacodynamics (PD), safety and tolerability of a single intravenous (IV) dose of Compound A in adults who have been diagnosed with obstructive sleep apnea (OSA) and who are experiencing excessive daytime sleepiness (EDS) despite adequate use of CPAP. Twenty-five patients were randomized, and 23 patients completed the study. All patients at entry were having EDS despite being adequately controlled by CPAP for their sleep apnea.\nOn Day 1 of Treatment Period 1, all eligible subjects were randomized and received the first dose of study drug. Compound A or placebo was administered as a single 9-hour IV infusion commencing at approximately 08:00. On each dosing day (Study Days 1, 3, and 5), 40-minute MWT sessions were performed at 2, 4, 6, and 8 hours after the start of the infusion. There was a minimum 24-hour washout interval between the end of the infusion and the commencement of treatment in subsequent treatment periods to allow for complete elimination of the preceding treatment effect. […] Blood samples for determination of Compound A plasma concentrations were collected predose and at specified time points postdose, Safety assessments were recorded. During the study, AEs were recorded, clinical laboratory tests, vital signs, and safety ECGs were obtained. […]"}},
  "data": [
    {"compound": "COC(=O)N1CCC[C@H](NS(C)(=O)=O)[C@@H]1CO[C@H]1CC[C@@H](c2ccccc2)CC1", "note": "[Compound A, methyl (2R,3S)-3-((methylsulfonyl)amino)-2-(((cis-4-phenylcyclohexyl)oxy)methyl)piperidine-1-carboxylate]", "values": [
      {"measurement": "Mean change from baseline in average sleep latency in MWT", "setting": "patients with NT2 [1]; Compound A 44 mg, Day 1", "result": 23.88, "unit": "min"},
      {"measurement": "Mean sleep latency in MWT", "setting": "patients with NT2 [1]; Compound A 44 mg, Day 1", "result": 33.03, "unit": "min"},
      {"measurement": "Mean change from baseline in average sleep latency in MWT", "setting": "patients with NT2 [1]; Compound A 44 mg, Day 7", "result": 25.79, "unit": "min"},
      {"measurement": "Mean sleep latency in MWT", "setting": "patients with NT2 [1]; Compound A 44 mg, Day 7", "result": 34.47, "unit": "min"},
      {"measurement": "Maximum sleep latency achieved in MWT", "setting": "patients with NT2 [1]; Compound A 44 mg, at 2 and 8 hours on Day 1 and at 4 and 8 hours on Day 7", "result": 40, "unit": "min"},
      {"measurement": "Mean change from baseline in average sleep latency in MWT", "setting": "patients with NT2 [1]; Compound A 112 mg, Day 1", "result": 31.15, "unit": "min"},
      {"measurement": "Mean sleep latency in MWT", "setting": "patients with NT2 [1]; Compound A 112 mg, Day 1", "result": 38.48, "unit": "min"},
      {"measurement": "Mean change from baseline in average sleep latency in MWT", "setting": "patients with NT2 [1]; Compound A 112 mg, Day 7", "result": 28.28, "unit": "min"},
      {"measurement": "Mean sleep latency in MWT", "setting": "patients with NT2 [1]; Compound A 112 mg, Day 7", "result": 35.60, "unit": "min"},
      {"measurement": "Maximum sleep latency achieved in MWT", "setting": "patients with NT2 [1]; Compound A 112 mg, at 2, 4, and 8 hours both on Day 1 and Day 7", "result": 40, "unit": "min"},
      {"measurement": "ESS Change from Baseline Mean", "setting": "patients with NT2 [2]; Compound A 44 mg", "result": "−3.8"},
      {"measurement": "ESS Change from Baseline Median", "setting": "patients with NT2 [2]; Compound A 44 mg", "result": "−3.5"},
      {"measurement": "ESS Observed Value Mean", "setting": "patients with NT2 [2]; Compound A 44 mg", "result": 13.3},
      {"measurement": "ESS Observed Value Median", "setting": "patients with NT2 [2]; Compound A 44 mg", "result": 14.0},
      {"measurement": "Mean ESS score", "setting": "patients with NT2 [2]; Compound A 44 mg", "result": 13.3},
      {"measurement": "Mean change from baseline in ESS", "setting": "patients with NT2 [2]; Compound A 44 mg", "result": "−3.8"},
      {"measurement": "ESS Change from Baseline Mean", "setting": "patients with NT2 [2]; Compound A 112 mg", "result": "−12.2"},
      {"measurement": "ESS Change from Baseline Median", "setting": "patients with NT2 [2]; Compound A 112 mg", "result": "−13.0"},
      {"measurement": "ESS Observed Value Mean", "setting": "patients with NT2 [2]; Compound A 112 mg", "result": 6.0},
      {"measurement": "ESS Observed Value Median", "setting": "patients with NT2 [2]; Compound A 112 mg", "result": 4.0},
      {"measurement": "Mean ESS score", "setting": "patients with NT2 [2]; Compound A 112 mg", "result": 6.0},
      {"measurement": "Mean change from baseline in ESS", "setting": "patients with NT2 [2]; Compound A 112 mg", "result": "−12.2"},
      {"measurement": "Safety and tolerability", "setting": "[3]", "result": "safe and well tolerated"}
    ]}
  ]
}
